Tests used:
E. coli ATCC 25922 = experiment: Cuvette-based bacterial agglutination assay; format: cell-based, Escherichia coli; details: n = 3
Text: We previously reported a simple cuvette-based in vitro agglutination assay that enables time-dependent monitoring of agglutination of viable bacteria by HD6.[15] We employed this assay to further characterize the trypsin-dependent activity of proHD6 on cultured bacterial cells (Fig. 4a and b). […] In these assays, we defined the “supernatant” as the culture solution in the top portion of the cuvette and the “re-suspension” as the mixture that results from agitating the entire culture after the 6 h incubation period.[15] We observed an ≈1.5-fold log reduction in CFU mL^–1 for the “supernatant” from cultures treated with combination of trypsin and proHD6 relative to the no-peptide control (Fig. 4c). Following “re-suspension”, the total CFU mL^–1 in the cuvette was indistinguishable from that of either the untreated control culture or the bacterial culture treated with proHD6.
Fig. 4 Bacterial agglutination assays for native and cleaved proHD6. (a) Agglutination of E. coli ATCC 25922 and L. monocytogenes ATCC 19115 in 50% MHB treated with proHD6 in the absence and presence of 0.4 μM trypsin or HD6 (control). (b) Representative images of cuvettes containing E. coli ATCC 25922 or L. monocytogenes ATCC 19115 after incubation with 20 μM peptides for 2 h at room temperature. (c) Plots of colony forming units (CFU mL^–1) of E. coli ATCC 25922 and L. monocytogenes ATCC 19115 after treatment with 20 μM peptides for 6 h (mean ± SDM, n = 3). Supernatant is defined as the clarified medium solution in the top portion of the culture and resuspension is defined as the mixture after thoroughly agitating the heterogeneous solution.
Stock solutions (50 μL) of HD6 and proHD6 (0, 50, 100, and 200 μM; 10× concentrations) were prepared in sterile Milli-Q water. If trypsin was required, aliquots of a 1 mg mL^–1 stock solution of TPCK-treated trypsin (Worthington) prepared in sterile Milli-Q water were added to solutions of proHD6 to afford a final trypsin concentration of 0.01 mg mL^–1. The assays were then conducted following the reported procedure.[15] […]

[1] = Sedimentation equilibrium analytical ultracentrifugation; format: physicochemical; details: 10 mM sodium phosphate; for MW (sedimentation equilibrium, SEDPHAT): pH 7.4, 20 °C, global fit
Protocol: Sedimentation equilibrium (SE) experiments were performed to determine the molecular weight of proHD6. The proHD6 samples were prepared as described in the SV experiments with modification. In a typical set of experiments, proHD6 solutions in Milli-Q water (≈100 μL) prepared in microcentrifuge tubes were lyophilized to dryness. An aliquot (110 μL, pre-filtered, 0.22 μm filter) of 10 mM sodium phosphate buffer adjusted to pH 7.4 was added to each tube to afford solutions with varying concentrations of proHD6 (30, 60, and 120 μM) and transferred to AUC sample cells. The pH of each solution was measured to confirm that each solution remained at pH 7.4. Based on the sedimentation coefficients obtained from the SV experiments, equilibrium profiles were obtained at rotor speeds of 30 000, 36 000, and 42 000 rpm. Once equilibrium was established, two scans with five replicates were recorded. The absorption wavelength for optical detection was 280 nm, and the instrument was maintained at 20 °C.
The details of the experimental setup and data analysis are reported elsewhere.[52] SEDNTERP[53] was employed to calculate the buffer viscosity (η), buffer density (ρ), and the partial specific volume (value of proHD6 at 20 °C) as described in the SV section. The molecular weight of proHD6 was determined by global fitting of the multispeed equilibrium data across all loading concentrations at pH 7.4 using SEDPHAT.[31] The Species Analysis model with mass conservation was employed for data analysis. The bottom of the sample sector was assigned as a floating parameter. To further evaluate whether each least-squares curve-fitting procedure converged to a global minimum, the alternate methods of Simplex, Marquardt–Levenberg, and simulated annealing were employed to assess any change in the global reduced chi-squared value.
Table S5. Molecular weight fitting of SE data for proHD6 by using SEDPHAT.a 95% Confidence Standard Global Reduced Critical Chi-Squared
Sample MW (Da) Intervalb Deviationb Chi-Squared Valuec […]
a All samples were in 10 mM sodium phosphate, pH 7.4. Global fitting used partial specific volume (v) at 20 °C, a solvent density ( ρ) of 0.99967 g/mL, and a solvent viscosity (η) of 1.0061 cP. Viscosity units are in centipoise (cP) (1 poise = 1 gŸ[…] cm-1Ÿ[…]s-1). b Calculated from 1000 iterations of Monte-Carlo analysis. c Calculated at a 95% confidence level.

In the case of “EPLQAEDDPLQAKAYEADAQEQRGANDQDFAVSFAEDASSSLRALGSTRAFTCHCRRSCYSTEYSYGTCTVMGINHRFCCL (disulfide (positions not given here)) [proHD6, 81-residue propeptide of human α-defensin 6, recombinant, from His6-SUMO-proHD6]”, the “total CFU mL^-1 after re-suspension versus untreated control culture or culture treated with proHD6” value (E. coli ATCC 25922; 20 µM proHD6 + trypsin, 6 h, entire culture agitated) is reported as “indistinguishable”, the “agglutination of bacterial culture in cuvette, with trypsin” value (E. coli ATCC 25922; proHD6 + 0.4 µM (0.01 mg/mL) trypsin, 10^8 CFU mL^-1, 50% MHB, room temperature) is reported as “bacterial agglutination and sedimentation occurred” and the “agglutination of bacterial culture in cuvette” value (E. coli ATCC 25922; proHD6 up to 20 µM, no trypsin, 10^8 CFU mL^-1, 50% MHB, 6 h, room temperature) is reported as “remained homogeneous”. For the same sequence, the “molecular weight in solution (sedimentation equilibrium, global analysis)” value ([1]; pH 7.4, 20 °C, 30, 60, 120 µM proHD6, 30 000/36 000/42 000 rpm, A280, SEDPHAT, SD ±230 Da, 95% interval 15 059-15 946 Da) was 15 549 Da, the “MW (sedimentation equilibrium, SEDPHAT)” value ([1]; Sample 1) was 15176 Da and the “MW (sedimentation equilibrium, SEDPHAT)” value ([1]; Sample 2) was 15351 Da. For the same sequence, the “MW (sedimentation equilibrium, SEDPHAT)” value ([1]; Sample 3) was 15549 Da.
